In EPA's ToxValDB 9.5:

Test system: Rattus norvegicus
Conditions: oral
[1] = short-term, duration: 28 days, gavage, M/F, Sprague-Dawley, Deaths + Clinical Observation: Tremor Locomotor activity decrease1000 Ptosis Prone position Lateral position Soiled peritoneal region …
[2] = subchronic, gavage, M, Sprague-Dawley, Clinical Observation: Salivation + Water Consumption: increase + Urinalysis: Urinary volume increase + Thyroid Hormone: Thyroid hormones', '…
[3] = subchronic, gavage, M, Sprague-Dawley, Absolute Organ Weight: Seminal vesicle increase, Prostate increase + Relative Organ Weight: Seminal vesicle increase, Prostate increase
[4] = short-term, duration: 28 days, gavage, F, Sprague-Dawley, Blood Chemistry: Glu decrease, ChE increase, BUN increase + Absolute Organ Weight: Thyroid increase(trend) + Relative Organ Weight: Thyroid …
[5] = short-term, duration: 28 days, gavage, M, Sprague-Dawley, Blood Chemistry: Glu decrease, ChE increase, BUN increase + Absolute Organ Weight: Thyroid increase(trend) + Relative Organ Weight: Thyroid …
[6] = short-term, duration: 28 days, gavage, M, Sprague-Dawley, Clinical Observation: Salivation + Urinalysis: Volume increase + Blood Chemistry: Ch E increase, T-CHO increase + Absolute Organ Weight: …
[7] = short-term, duration: 28 days, gavage, F, Sprague-Dawley, Deaths + Clinical Observation: Locomotor activity decrease, Salivation + Body Weight Changes: decrease, Gain decrease + Food Consumption: …
[8] = short-term, duration: 28 days, gavage, M, Sprague-Dawley, Deaths + Clinical Observation: Locomotor activity decrease, Salivation + Body Weight Changes: decrease, Gain decrease + Food Consumption: …

Compound `Fc1ccc(Br)cc1F` [4-Bromo-1,2-difluorobenzene] has an NOEL (short-term, duration: 28 days, gavage, M/F, Deaths + Clinical Observation: Locomotor activity decrease, Salivation Paleness of Auricle + Body Weight Changes: Gain decrease + …) of 20 mg/kg-day.
Work on `Cc1cc(O)ccc1Cl` [4-Chloro-3-methylphenol] yielded an LOAEL [1] of 250 mg/kg-day, an LOEL [1] of 250 mg/kg-day and an NOAEL [1] of 60 mg/kg-day. It also gave an NOEL [1] of 60 mg/kg-day.
In the case of `O=C(Cl)c1ccc(Cl)cc1` [4-Chlorobenzoyl chloride], the LOEL [2] is reported as 500 mg/kg-day and the NOEL [2] is reported as 100 mg/kg-day.
Work on `NCc1ccc(Cl)nc1` [5-(Aminomethyl)-2-chloropyridine] yielded an NOEL (short-term, duration: 28 days, gavage, M/F, Clinical Observation: Salivation Locomotor activity decrease, Respiration rate decrease, Ptosis Lacrimation + Body Weight Changes: Weight …) of 8 mg/kg-day.
In the case of `O=C(CO)[C@@H](O)[C@H](O)[C@H](O)CO[C@H]1O[C@H](CO)[C@@H](O)[C@H](O)[C@H]1O` [6-O-Hexopyranosylhex-2-ulofuranose], the NOEL (subchronic, duration: 13 weeks, diet, Wistar) is reported as 10%.
Work on `Oc1cccc2cccnc12` [8-Hydroxyquinoline] yielded an NOEL (subchronic, gavage, M, Sprague-Dawley, Clinical Observation: Salivation + Functional Observational Battery: Salivation + Body Weight Changes: Body weight gain decrease(tendency)…) of 100 mg/kg-day.
For `CC/C=C\CCOC(C)=O` [(3Z)-3-Hexenyl acetate], the NOAEL [3] was 1000 mg/kg-day and the NOEL [3] was 300 mg/kg-day.
`CCCCC/C=C/C=C/C=O` [(E,E)-2,4-Decadienal] showed an NOAEL (chronic, duration: 14 weeks, gavage, M/F, Fischer 344, Clinical Observation: Lethargy + Body Weight Changes: Mean body weight decrease, Body weight gain decrease + Hematology: WBC decrease, SEG …) of 100 mg/kg-day.
In the case of `C1=Cc2cccc3cccc1c23` [Acenaphthylene], the NOEL (short-term, duration: 28 days, gavage, M/F, Crl:CD(SD), Deaths + Clinical Observation: Salivation, Rough coat, Wasting, Rearing cunut decrease + Functional Observational Battery: Forearm strength…) is reported as 4 mg/kg-day.
With `C1C2CC3CC1CC(C2)C3` [Adamantane] the LOEL [4] was 1000 mg/kg-day, the NOEL [4] was 200 mg/kg-day and the LOEL [5] was 40 mg/kg-day. The NOEL [5] was under 40 mg/kg-day.
`Nc1ccccc1C(=O)O` [Anthranilic acid] gave an NOAEL [6] of 200 mg/kg-day and an NOEL [6] of under 200 mg/kg-day.
In the case of `O.O.[Ba+2].[Cl-].[Cl-]` [Barium chloride dihydrate], the NOEL (subchronic, duration: 13 weeks, water, F, Fischer 344, Deaths + Body Weight Changes: decrease + Water Consumption: decrease + Blood Chemistry: Pi increase + Absolute Organ Weight: Kidney increase…) is reported as 10 mg/kg-day and the NOEL (subchronic, duration: 13 weeks, water, M/F, Fischer 344, Deaths + Body Weight Changes: decrease + Water Consumption: decrease + Blood Chemistry: Pi increase + Absolute Organ Weight: Kidney increase…) is reported as 19 mg/kg-day.
`NS(=O)(=O)c1ccccc1` [Benzenesulfonamide] gave an LOAEL [7] of 30 mg/kg-day, an LOEL [7] of 30 mg/kg-day and an NOAEL [7] of 6 mg/kg-day. For the same compound, the NOEL [7] was 6 mg/kg-day, the LOAEL [8] was 30 mg/kg-day and the LOEL [8] was 30 mg/kg-day. It also gave an NOAEL [8] of 6 mg/kg-day and an NOEL [8] of 6 mg/kg-day.
